Data reported in PubChem BioAssay AID1996.
Converted amounts (≈) assume the structure as drawn.

conditions: buffer; pH 7.4; 200.0 µM

Row | solubility kinetic [µg/mL] | SMILES
1 | > 43 | Cc1cc(C)c(NC(=O)CCc2c(C)noc2C)c(C)c1
2 | 35.8 (≈ 112 µM) | COc1ccc(C(=O)C(C)OC(=O)c2sc(C)nc2C)cc1 (stereo unspecified)
3 | 18.1 (≈ 70.9 µM) | COC(=O)c1c(NC(=O)C(C)(C)C)csc1C
4 | > 55.4 | Cc1ccnc2nc(C(=O)OCC(=O)Nc3ccc4c(c3)OCCO4)nn12
5 | > 47.5 | CCSc1nnc(SCC(=O)Nc2cc(C)on2)s1
6 | 38.4 (≈ 146 µM) | COCCCNC(=O)/C(C#N)=C/c1ccc(F)cc1
7 | < 0.7 | COc1ccc(OC)c(NC(=O)c2csc(Cl)c2OC)c1
8 | 0.7 (≈ 2.12 µM) | O=C(CCC(=O)c1ccc(-c2ccccc2)cc1)Nc1cccnc1
9 | 5.4 (≈ 16.8 µM) | Cn1cccc1C(=O)OCC(=O)NC(=O)c1ccc(Cl)cc1
10 | > 42.8 | COc1cc2c(cc1OC)C(c1ccc(O)cc1)NCC2 (stereo unspecified)
11 | 3.9 (≈ 10.2 µM) | CCOC(=O)C1CCN(S(=O)(=O)c2ccc(-c3ccccn3)s2)CC1
12 | > 57.1 | O=C(c1ccccc1NS(=O)(=O)c1ccc(F)cc1F)N1CCCCC1
13 | 49 (≈ 150 µM) | COc1ccc(NC(=S)N2CCCCC2c2cccnc2)cc1 (stereo unspecified)
14 | 6.4 (≈ 15.1 µM) | Cc1ccc(-c2cc(C(=O)N3CCN(c4ccc(O)cc4)CC3)c3ccccc3n2)cc1
15 | < 0.3 | Cc1ccc(NC(=O)c2cc(=O)[nH]c3ccccc23)cc1C
16 | > 43.7 | COCCNC(=O)COC(=O)C1=Cc2ccccc2OC1
17 | > 43.8 | C#CCn1ccc(O)c(Cc2c(F)cccc2Cl)c1=O
18 | 12.1 (≈ 34.2 µM) | Cc1cccc(C(C)C)c1NC(=O)c1ccc(OCC2CCCO2)cc1 (stereo unspecified)
19 | 33.1 (≈ 141 µM) | Cc1ccc(NC2CC(C)NC(=S)N2)cc1 (stereo unspecified)
20 | 31.7 (≈ 113 µM) | Cc1ccccc1N=C1c2ccccc2C(=O)C1[N+](=O)[O-] (stereo unspecified)

Row | solubility kinetic [µg/mL] | SMILES
21 | 27 (≈ 98.4 µM) | Cc1ccccc1CN1CCN(C(=O)CC(C)C)CC1
22 | 0.4 (≈ 1.15 µM) | Cc1cc2nc(-c3ccc[nH]c3=O)n(Cc3ccccc3F)c2cc1C
23 | 33.7 (≈ 121 µM) | CCNCCC(CCC(C)C)c1ccc2c(c1)OCO2 (stereo unspecified)
24 | 6.1 (≈ 18.1 µM) | O=C(NCc1cccc(C(F)(F)F)c1)c1ccc2c(c1)OCCO2
25 | > 44.5 | CCN(CC(=O)N1CCCC1)S(=O)(=O)c1ccccc1
26 | 8.6 (≈ 31.8 µM) | Cc1cn(S(=O)(=O)c2ccc(Cl)cc2)c(C)n1
27 | > 40.7 | O=C(NCC1CCCO1)c1cc2ccccc2cc1O (stereo unspecified)
28 | > 46.7 | Cc1ccc(NCC(=O)N/N=C/c2ccc(C(=O)O)cc2)cc1
29 | 5.8 (≈ 18.6 µM) | CC1(c2ccccc2)CC(c2ccccc2)=Nc2ccccc2N1 (stereo unspecified)
30 | 14.3 (≈ 30.5 µM) | Cc1ccc(NC(=O)CNc2cccc(Br)c2)cc1S(=O)(=O)N1CCOCC1
31 | 13.4 (≈ 49.6 µM) | CC(C)Oc1ccc(/C=C(\C#N)C(=O)NC2CC2)cc1
32 | < 0.3 | CCCOC(=O)C1=C(C)NC(=O)NC1c1cccc2ccccc12 (stereo unspecified)
33 | > 57.5 | O=C(CSc1n[nH]c(-c2ccc(Br)cc2)n1)N1CCOCC1
34 | 48.9 (≈ 149 µM) | CCN(C(=S)NC(=O)Cc1ccc(OC)cc1)c1ccccc1
35 | > 50.6 | CC(Nc1cccc(F)c1)C(=O)Nc1ccc(S(N)(=O)=O)cc1 (stereo unspecified)
36 | > 47 | CCOC(=O)C1C2C=CC3(CN(Cc4ccccc4)C(=O)C13)O2 (stereo unspecified)
37 | > 56.2 | O=C(O)c1ccccc1C(=O)Nc1nc(-c2ccc3ccccc3c2)cs1
38 | > 39.4 | CCC(C)c1ccc(NC(=S)N2CCCC2)cc1 (stereo unspecified)
39 | 16.4 (≈ 50.9 µM) | CSc1ncccc1C(=O)OCC(=O)NC1CCC(C)CC1 (stereo unspecified)
40 | 0.6 (≈ 1.84 µM) | Cc1ccc(N2CCN(C(=S)Nc3ccccc3C)CC2)cc1

Row | solubility kinetic [µg/mL] | SMILES
41 | 38.3 (≈ 128 µM) | Cc1cc(C)cc(OCC(=O)O/N=C(\N)c2cccnc2)c1
42 | > 52.6 | CN(C)C(CNC(=O)c1ccc(NC(=O)CC#N)cc1)c1ccccc1 (stereo unspecified)
43 | 27.8 (≈ 85.2 µM) | COc1ccc(NC(=O)N2CCCc3cc(C)ccc32)c(OC)c1
44 | 33.9 | NC(=O)c1ccc(/C=N/O)[n+](Cc2ccccc2)c1.[Br-]
45 | 8.1 (≈ 21.5 µM) | Cc1onc(NC(=O)NC(=O)c2c(F)cccc2Cl)c1Br
46 | 34 (≈ 117 µM) | COc1ccccc1NC(=S)NCc1ccc(F)cc1
47 | 44.6 (≈ 148 µM) | O=C(Cc1ccccc1[N+](=O)[O-])NCCc1ccc(F)cc1
48 | > 48.2 | CCOc1ccc(Br)cc1CNCc1cccnc1
49 | > 35.1 | CCC1CCC/C1=N\NC(=O)c1ccoc1C (stereo unspecified)
50 | < 0.4 | CCC(=O)c1cn(CC(=O)Nc2cc(C)ccc2C)c2ccccc12
51 | > 48.5 | CC(C)(C)C(=O)Nc1cccc(S(=O)(=O)NC2=NCCC2)c1
52 | > 53.8 | Cc1cc(C)nc(Nc2ccc(Br)cc2C(=O)O)n1.Cl
53 | < 0.4 | CS(=O)(=O)Nc1ccc(C(=O)Nc2ccc3ccccc3c2)cc1
54 | > 50.2 | Cc1ccc(C(=O)NC(C)C(c2cccs2)N2CCCC2)s1 (stereo unspecified)
55 | 3.2 (≈ 9.32 µM) | CC(Nc1nc(-c2ccccc2F)nc2ccccc12)c1ccccc1 (stereo unspecified)
56 | 23.8 (≈ 79.2 µM) | Cc1cc(C(=O)NCC(=O)Nc2c(C)cccc2C)c(C)o1
57 | > 36.5 | Cc1cc(C)cc(NC(=O)CCn2ccnc2)c1
58 | 41 (≈ 148 µM) | Cc1cc(C)nc(NC=C2C(=O)OC(C)(C)OC2=O)n1

Row | SMILES | solubility kinetic [µg/mL]
59 | C#CC[N+]1(C)C2CCC1CC(O)C2.[Br-] (stereo unspecified) | 33.7
60 | O=C(Cc1ccccc1)NCCc1c[nH]c2ccccc12.O=C(O)C(=O)O | 47.8
61 | COc1ccc(OC)c(N2C(=O)CC(=O)NC2=O)c1 | > 39.6
